The target in assay [1] is p38α/MK2 (Homo sapiens, UniProt Q16539). Briefly: p38α/MK2 cascade assay (IMAP, Hsp27 peptide phosphorylation). It counts as biochemical. The note with it: for IC50: p38α/MK2 cascade, Hsp27 peptide 1 μM, MgATP 10 μM, 120 minutes, read-out: p38/MK2 IC50; for Selectivity Ratio: ratio of p38α/PRAK:p38α/MK2 IC50 values. As for the experimental part:
(§1) P38 inhibitory potency and P38/MK2 substrate selectivity: The novel, MK2 substrate-selective inhibitory mechanism of compounds is evaluated in enzyme assays that compare inhibitor potency in blocking p38/MK2 versus p38/PRAK induced phosphorylation of an HSP-27 derived peptide substrate. The ability of compounds to inhibit activated phospho-p38α is evaluated using a p38α/MK2 and a p38α/PRAK cascade assay format. The kinase activity of p38α is determined by its ability to phosphorylate and activate GST-MK2 or GST-PRAK. The kinase activity of activated MK2 and PRAK is followed by measuring the phosphorylation of a fluorescently-labeled, peptide substrate based on the sequence of Hsp27 (FITC-KKKALSRQLSVAA). The phosphorylation of the Hsp27 peptide is quantified using IMAP assay technology (Molecular Devices) and the Analyst HT plate reader (LJL Biosystems). Kinase reactions are carried out in a 384-well plate (Corning 3575) in 20 mM HEPES pH 7.5, 10 mM MgCl2, 0.0005% Tween-20, 0.01% BSA, 1 mM DTT, and 2% DMSO. The inhibitor concentration varies between 0.5-30,000 nM, while the Hsp27 peptide substrate and MgATP are held constant at 1 μM and 10 μM, respectively. Activated p38α is added to a final concentration of 20 pM for reactions with 1 nM nonphosphorylated 1 nM GST-MK2. For the p38α/PRAK cascade, unactivated GST-PRAK is held constant at 10 nM while p38α is added to a final concentration of […]. Kinase reactions are incubated at room temperature and quenched after 120 minutes by the addition of 1× Progressive Binding Buffer A containing 1×IMAP beads (IMAP FP Progressive Screening Express Kit, Molecular Devices Catalog Number R8127). Inhibitor potency is calculated by fitting dose-response data to the 4-parameter logistical IC50 equation. The substrate selectivity is calculated as a ratio of p38α/PRAK:p38α/MK2 IC50 values. A substrate selective inhibitor will have a p38α/PRAK:p38α/MK2 IC50 ratio of >2 while a classical p38 inhibitor will have a ratio of between 0.5-2. […] By way of example, the enhanced therapeutic benefit could be associated with a reduction in inhibition of p38 mediated anti-inflammatory functions, such as IL-10 production and TAB1 phosphorylation. An increased safety profile is expected based, for example, on a reduced inhibition of p38 substrates, such as PPARg and CDC25 phosphatase and PLA2 involved in gluconeogenesis and cell cycle regulation, respectively.

Assay [2] has as its target p38α/PRAK (Homo sapiens, UniProt Q16539). Briefly: p38α/PRAK cascade assay (IMAP, Hsp27 peptide phosphorylation). The conditions noted are these: Hsp27 peptide 1 μM, MgATP 10 μM, 120 minutes, read-out: p38/PRAK IC50. It is filed as biochemical. As for the experimental part:
as §1

Assay [3] concerns TNFα. Briefly: LPS stimulated TNFα production in human PBMCs (ELISA). It counts as cell-based. The conditions noted are these: PBMC, LPS 0.1 μg/ml, 18-24 hours, read-out: PBMC Cell, TNFα IC50. On the procedure: Evaluation of the potency and efficacy of p38 inhibitors to block cytokine production is carried out using the human U937 cell line and purified human PBMCs (peripheral blood mononuclear cells). The U937 human pre-monocytic cell line is obtained from the American Type Culture Collection (Rockville, Md.). These cells are differentiated to a monocytic/macrophage phenotype as described by Burnette (Burnette et al., (2009). SD0006: a potent, selective and orally available inhibitor of p38 kinase, Pharmacology 84(1):42-60). Differentiated U937 cells are seeded into 96-well tissue culture plates (200,000 cells/well) in complete media. After 24 hours, the cells are pretreated for 60 minutes in the presence or absence of compound and then stimulated with LPS (lipopolysaccharide) (0.1 μg/mL) for 4 hours. Culture media are then collected for determination of TNFα or IL-6 levels by ELISA. Human PBMCs are isolated from leukopacks as described by Burnette (Burnette et al., (2009), op. cit.). The cells are seeded into 96-well tissue culture plates (200,000 cells/well) in complete media. After a one hour recovery period at 37° C., 5% CO2, the cells are pretreated for 60 minutes in the presence or absence of compound and then stimulated with LPS (0.1 μg/ml) for 18-24 hours. Culture media are then collected for determination of TNFα and IL1β by ELISA. Cytokine concentrations are extrapolated from recombinant protein standard curves using a four-parameter logistic model and solving for IC50 after iterating to the best least-squares fit. p38 inhibitors will show a dose dependent inhibition of LPS stimulated TNFα, and IL6 in differentiated U937 cells and a dose dependent inhibition of LPS stimulated TNFα, IL6 and IL1b in human PBMCs. As drugs that down-regulate TNFα, IL6 and IL1b are efficacious in a number of autoimmune, autoinflammatory inflammatory, cardiovascular and oncological diseases, it would be expected that p38 drugs that inhibit these cytokines and other enzymes and mediators of disease will be effective drugs. Species compounds of Formula (I), described hereinabove, evaluated in this assay, are expected to provide a therapeutic benefit in the treatment of p38 kinase mediated diseases, including lymphoma and inflammation.
For orientation: An ELISA detects its analyte on a solid surface through an enzyme-linked reagent.

The text below walks through data of patent US9056110B2, “Substituted pyrimidinone-phenyl-pyrimidinyl compounds” (Confluence Life Sciences, Inc., priority 2011, dated 2015).

Sequence of p38α/PRAK (Q16539 whole entry): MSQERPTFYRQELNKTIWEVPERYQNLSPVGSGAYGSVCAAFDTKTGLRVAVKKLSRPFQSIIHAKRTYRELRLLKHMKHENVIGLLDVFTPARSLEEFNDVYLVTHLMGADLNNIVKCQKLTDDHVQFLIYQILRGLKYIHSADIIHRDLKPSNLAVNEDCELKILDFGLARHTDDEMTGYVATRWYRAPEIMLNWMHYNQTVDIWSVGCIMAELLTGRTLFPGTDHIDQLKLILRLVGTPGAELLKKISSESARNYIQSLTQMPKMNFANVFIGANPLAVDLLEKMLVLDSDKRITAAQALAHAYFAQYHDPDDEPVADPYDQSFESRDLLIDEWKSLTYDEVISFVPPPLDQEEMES
Sequence of p38α/MK2 (Q16539 whole entry): as above
Sequence of p38α/MK2 (P49137 whole entry partner): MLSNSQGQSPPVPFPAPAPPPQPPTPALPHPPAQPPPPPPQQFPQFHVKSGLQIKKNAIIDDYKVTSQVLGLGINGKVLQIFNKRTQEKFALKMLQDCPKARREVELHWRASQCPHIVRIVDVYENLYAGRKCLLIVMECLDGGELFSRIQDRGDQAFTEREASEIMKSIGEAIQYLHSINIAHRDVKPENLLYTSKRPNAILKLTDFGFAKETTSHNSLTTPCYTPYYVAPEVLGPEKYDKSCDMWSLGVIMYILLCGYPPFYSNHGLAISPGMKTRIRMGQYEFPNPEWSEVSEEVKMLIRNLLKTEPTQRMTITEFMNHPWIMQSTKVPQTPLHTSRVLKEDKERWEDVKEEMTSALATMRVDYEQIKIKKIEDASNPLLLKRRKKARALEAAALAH

`Cc1ccc(-c2ccnc(C(C)(C)O)n2)cc1-n1c(C)nc(OCc2ncc(F)cc2F)c(Cl)c1=O` [Example 21, (−)-5-chloro-6-((3,5-difluoropyridin-2-yl)methoxy)-3-(5-(2-(2-hydroxypropan-2-yl)pyrimidin-4-yl)-2-methylphenyl)-2-methylpyrimidin-4(3H)-one]: the IC50 stood at 33 nM in assay [1], 252 nM in assay [2] and 96 nM in assay [3]. Also, the “Selectivity Ratio” value in assay [1] was 7.63.
For the compound `Cc1ccc(-c2ccnc(C(C)(C)O)n2)cc1-n1c(C)nc(OCc2cccc(F)n2)c(Cl)c1=O` [Example 18, 5-chloro-6-((6-fluoropyridin-2-yl)methoxy)-3-(5-(2-(2-hydroxypropan-2-yl)pyrimidin-4-yl)-2-methylphenyl)-2-methylpyrimidin-4(3H)-one], the IC50 in assay [1] is 579 nM; in assay [2], 7690 nM; in assay [3], 624 nM. Besides, in assay [1], the “Selectivity Ratio” value worked out at 13.3.
For `Cc1nc(COc2nc(C)n(-c3cc(-c4ccnc(C(C)(C)O)n4)ccc3C)c(=O)c2Cl)co1` (racemic) [Example 8, 5-chloro-3-(5-(2-(2-hydroxypropan-2-yl)pyrimidin-4-yl)-2-methylphenyl)-2-methyl-6-((2-methyloxazol-4-yl)methoxy)pyrimidin-4(3H)-one], in that order: 121 nM, 2190 nM, 158 nM and 18.1.
Regarding `Cc1ccc(-c2ccnc(C(C)(C)O)n2)cc1-n1c(C)nc(OCc2ccc(F)cc2F)c(Br)c1=O` [Example 1, 5-bromo-6-((2,4-difluorobenzyl)oxy)-3-(5-(2-(2-hydroxypropan-2-yl)pyrimidin-4-yl)-2-methylphenyl)-2-methylpyrimidin-4(3H)-one], the IC50 in assay [1] turned out to be 15 nM; in assay [2], 76 nM; in assay [3], 12 nM. Also, the “Selectivity Ratio” value in assay [1] worked out at 5.1.
For `Cc1ccc(-c2ccnc(C(C)(C)O)n2)cc1-n1c(C)nc(OCc2ccc(F)cc2F)c(Cl)c1=O` [Example 2, 5-chloro-6-(2,4-difluoro-benzyloxy)-3-{5-[2-(1-hydroxy-1-methyl-ethyl)-pyrimidin-4-yl]-2-methyl-phenyl}-2-methyl-3H-pyrimidin-4-one], the IC50 in assay [1] came out at 15 nM; in assay [2], 83 nM; in assay [3], 9.8 nM. For the same compound, the “Selectivity Ratio” value in assay [1] stood at 5.5.
As to `Cc1nc(COc2nc(C)n(-c3cc(-c4ccnc(C(C)(C)O)n4)ccc3C)c(=O)c2Cl)co1` [Example 9, (−)-5-chloro-3-(5-(2-(2-hydroxypropan-2-yl)pyrimidin-4-yl)-2-methylphenyl)-2-methyl-6-((2-methyloxazol-4-yl)methoxy)pyrimidin-4(3H)-one], the IC50 stood at 126 nM in assay [1], 1330 nM in assay [2] and 277 nM in assay [3]. Also, in assay [1], the “Selectivity Ratio” value was found to be 10.6.
With `Cc1cccc(COc2nc(C)n(-c3cc(-c4ccnc(C(C)(C)O)n4)ccc3C)c(=O)c2Br)n1` [Example 13, 5-bromo-3-(5-(2-(2-hydroxypropan-2-yl)pyrimidin-4-yl)-2-methylphenyl)-2-methyl-6-((6-methylpyridin-2-yl)methoxy)pyrimidin-4(3H)-one], the IC50 stood at 83 nM in assay [1], 1280 nM in assay [2] and 140 nM in assay [3]. For the same compound, the “Selectivity Ratio” value in assay [1] was 15.4.
For `Cc1nc(COc2nc(C)n(-c3cc(-c4ccnc(C(C)(C)O)n4)ccc3C)c(=O)c2Br)cs1` [Example 11, 5-bromo-3-(5-(2-(2-hydroxypropan-2-yl)pyrimidin-4-yl)-2-methylphenyl)-2-methyl-6-((2-methylthiazol-4-yl)methoxy)pyrimidin-4(3H)-one], the IC50 in assay [1] was 62 nM; in assay [2], 675 nM; in assay [3] it was 126 nM. For the same compound, the “Selectivity Ratio” value in assay [1] was determined as 10.9.
For `Cc1cccc(COc2nc(C)n(-c3cc(-c4ccnc(C(C)(C)C)n4)ccc3C)c(=O)c2Cl)c1` [Example 4, 3-(5-(2-(tert-butyl)pyrimidin-4-yl)-2-methylphenyl)-5-chloro-2-methyl-6-((3-methylbenzyl)oxy)pyrimidin-4(3H)-one], the results for the IC50 in assay [1], in assay [2] and in assay [3] were 1020 nM, 12900 nM and 101 nM, respectively. For the same compound, the “Selectivity Ratio” value in assay [1] worked out at 12.6.
